Experiments:
[1] = system: NHLF cells and diseased IPF cells (primary human lung fibroblasts) in fibrin scaffold; test: Microscale cell-mediated fibrinolysis assay (ATPS-printed fibroblast-laden fibrin scaffolds, brightfield pixel intensity); format: cell-based; conditions: NHLF cells
Method: A stock solution of DEX (20% w/w dextran T500; Sigma) was prepared in phosphate buffered saline (PBS) on a rocker overnight. A stock solution of PEG (6% w/w, 35 k MW; Sigma) was prepared in fully supplemented culture media with 10% deionized water to balance osmolality. Both stock solutions were passed through a 0.22 um sterilizing syringe filter before storage. PEG working solutions were stored for up to 2 weeks at 4° C. Thrombin (Human Alpha Thrombin; Enzyme Research Labs) was also added to the PEG solution at a concentration of 0.1 U/mL immediately preceding experiments. Fibrinogen-DEX solutions were prepared by diluting fibrinogen stock solution (human fibrinogen 3; Enzyme Research Labs) to a final concentration of 4 mg/mL in a sterile solution of 4% 10×DMEM, 15% DEX stock solution (to a final concentration of 3% dextran), and 50% cell suspension in growth media. For all experiments excluding cell concentration evaluation, the cell suspension was diluted for 1000 cells per microliter in the final fibrinogen-DEX solution.
Normal human lung fibroblasts (NHLF lot #0000580583; […] Cells were passaged at 80-90% confluence and were sub-cultured in 1:3 ratios by trypsinization. When at the desired confluence, cells were washed with PBS and 0.05% trypsin solution was added to the flask. Cells were incubated for 2 min, diluted with fibroblast growth media, and then harvested and centrifuged (200× g, 5 min) in a conical tube. The supernatant was aspirated and the cell pellet was re-suspended in serum-free culture media. When used in fibrin degradation experiments, cells were re-suspended at 2× the final desired concentration (1000 cells/ul unless otherwise indicated). All experiments were conducted with cells at or below passage 12. In all experiments, media was changed every 48 hours and any media additives (plasminogen, TGF-β1, drugs, etc.) were included.
Working solutions of PEG with 0.1 U/mL of thrombin were warmed to 37° C. and pipetted into a 96-well plate. For production of droplets, fibrinogen-DEX solutions with cell suspension were maintained at 37° C. and pipetted directly into the PEG-thrombin media using either a manual pipette or a semi-automated 96-channel pipette (Viaflo-96; Integra). All assays utilized a volume of 1 μl unless otherwise noted. Following dispensing of the DEX phase, the plates were placed in an incubator at 37° C. for 30 min to allow the thrombin to enzymatically crosslink the fibrinogen into a fibrin matrix (FIG. 1A). The PEG-enriched media was then washed four times by removing, then replacing half of the media with PEG-free media. When applicable, the final media addition was supplemented with stimuli as detailed in Example 5 below. For the duration of each experiment, assay plates were imaged every 2 hours at 4× with an automated cell culture monitoring system (Incucyte S3; Essen Biosystems). After one day of culture, plasminogen (50 μg/mL) (Human Glu-Plasminogen; Enzyme Research Labs) was added as a 10× concentrated solution to each well in order to initiate assay degradation (FIG. 1B), unless otherwise noted for specific conditions. Fresh plasminogen was included with each subsequent media addition. Positive controls with active plasmin (1 U/ml) (Human Plasmin; Enzyme Research Labs) and negative controls without plasminogen were included in each experiment. As cells activated plasminogen, the fibrin scaffold progressively degraded as illustrated in FIG. 1C.
After each experiment, brightfield images for every time point were downloaded in jpeg format from the automated cell culture monitoring system. Python's OpenCV library was implemented for the masking approach illustrated in FIG. 2A. First, a threshold was set at 50% of the maximum intensity (128 for 8-bit integer pixel values) in order to isolate the darker pixels of semi-opaque fibrin hydrogel from the background of the image. A closing morphological filter with a 25×25 kernel was then applied to each mask in order to remove noise. […]

[2] = system: normal human lung fibroblasts (NHLF); test: Picrosirius red histology of contracted cell-ECM spheroids (mean fluorescence intensity); format: cell-based; conditions: different TGF-β1 conditions and control, 12 days of culture
Method: Contracted cell-ECM spheroids were harvested after 9-12 days of culture. These structures were prepared for histology, stained, and imaged as previously described for cultured spheroids. Briefly, the spheroids were washed with PBS and fixed in 4% paraformaldehyde (Alfa Aesar) for 1 hour at room temperature. The structures were stained with 0.5% methylene blue solution in PBS for 10 minutes at room temperature to aid in visualization during histology. Samples were placed in a cryomold containing optimal cutting temperature (OCT) compound, and flash frozen in cooled isopentane. 10 um sections were obtained using a CryoStar NX70 cryostat (Thermo Fisher Scientific).
Upon warming to room temperature, the sections were washed with PBS, permeabilized with 0.2% Triton-X 100, and blocked for 1 hour at room temperature with 4% bovine serum albumin (BSA) (Millipore Sigma). Sections were stained for 30 min at room temperature with Sirius red (0.1% of Sirius red in saturated aqueous picric acid), as previously described for collagen bundle staining. The samples were then washed with PBS, stained with DAPI for 15 minutes at room temperature, and coverslipped. […] Fluorescence was detected using Texas Red channel settings as previously described. Mean fluorescence intensity was quantified in ImageJ as the average pixel intensity within the sections.

TGF-β1: Human Recombinant TGF-β1 (Peprotech), pro-fibrotic, anti-fibrinolytic stimulus
maximum slope of fibrin degradation ([1]; higher concentrations of TGF-β1): no significant changes in slope
50% degradation time / delay before fibrinolysis ([1]; various concentrations of TGF-β1): longer time delays before fibrinolysis
mean fluorescence intensity (MFI) of picrosirius red stained sections, collagen organization [2]: relative consistency in organization of collagen networks
